Experimental data taken from patent US20060069132A1, “Azolecarboxamide herbicides” (priority 2004, published 2006).

Columns and labels:
johnsongrass = experiment: Test C pre-/postemergence herbicide test; assay type: in vivo, Sorghum halepense; details: for Johnsongrass plant response rating: 500 g ai/ha
In short: (§1)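 Preemergence: seeds planted and treated with compound in non-phytotoxic solvent with surfactant; postemergence: plants at 2 to 18 cm (1- to 4-leaf stage) sprayed likewise. Kept in greenhouse 12 to 14 days, then visually rated against controls, 0 (no effect) to 100 (complete control).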

corn = experiment: Test C pre-/postemergence herbicide test; assay type: in vivo, Zea mays; details: for Corn plant response rating: 500 g ai/ha
In short: as §1

barnyardgrass = experiment: Test A pre-/postemergence herbicide test; assay type: in vivo, Echinochloa crus-galli
In short: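 Sandy loam soil given preemergence directed spray; plants at 2 to 10 cm, one- to two-leaf stage, sprayed to runoff postemergence, compounds in non-phytotoxic solvent with surfactant. Injury rated visually versus untreated controls after about ten greenhouse days, 0 (no effect) to 100 (complete control); dash means not tested.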

Surinam grass = experiment: Test C pre-/postemergence herbicide test; assay type: in vivo, Urochloa decumbens; details: for Surinam Grass plant response rating: 500 g ai/ha
In short: as §1

chickweed = experiment: Test C postemergence herbicide test; assay type: in vivo, Stellaria media; details: for Chickweed plant response rating: 500 g ai/ha
In short: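 Plants were grown to the 1- to 4-leaf stage (2–18 cm) and then treated postemergence, or grown to the 2-leaf stage for the flooded paddy test. They were held in a greenhouse for 12 to 14 days and then scored by eye against controls, where 0 is no effect and 100 is complete control.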

kochia = experiment: Test C pre-/postemergence herbicide test; assay type: in vivo, Kochia scoparia; details: for Kochia plant response rating: 500 g ai/ha
In short: as §1

cocklebur = experiment: Test C pre-/postemergence herbicide test; assay type: in vivo, Xanthium strumarium; details: for Cocklebur plant response rating: 500 g ai/ha
In short: as §1

rice = experiment: Test C flooded paddy test; assay type: in vivo, Oryza sativa; details: for Plant response rating, Rice: 500 g ai/ha, visual rating after 12 to 14 days
In short: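 Postemergence sprays applied to plants 2 to 18 cm tall (1- to 4-leaf stage); paddy species grown to 2-leaf stage under flooding. After 12 to 14 days in greenhouse, visual rating versus untreated controls on 0–100 scale (0 no effect, 100 complete control).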

lambsquarters = experiment: Test C pre-/postemergence herbicide test; assay type: in vivo, Chenopodium album; details: for Lambsquarters plant response rating: 500 g ai/ha
In short: as §1

woolly cupgrass = experiment: Test C pre-/postemergence herbicide test; assay type: in vivo, Eriochloa villosa; details: for Cupgrass, Woolly plant response rating: 500 g ai/ha
In short: as §1

[1] = Postemergence, 250 g ai/ha, scale 0 to 100, 0 no effect, 100 complete control
[2] = postemergence, 125 g ai/ha, scale 0 to 100
[3] = postemergence, 62 g ai/ha, scale 0 to 100
[4] = Postemergence, 500 g ai/ha, 0 to 100 scale, 0 no effect, 100 complete control
[5] = Postemergence, 2000 g ai/ha, 0 to 100 scale, 0 no effect, 100 complete control
[6] = Preemergence, 500 g ai/ha, visual rating, 0 to 100 scale (0 no effect, 100 complete control)
[7] = 62 g ai/ha, scale 0 to 100 (0 no effect, 100 complete control)
[8] = 125 g ai/ha, scale of 0 to 100, 0 is no effect, 100 is complete control
[9] = 250 g ai/ha, scale of 0 to 100, 0 is no effect, 100 is complete control
[10] = scale 0 to 100 (0 no effect, 100 complete control)
[11] = postemergence, 31 g ai/ha, scale 0 to 100

SMILES: CC(=NO)c1cccc(NC(=O)c2cc(C(C)(C)C)nn2CC(F)(F)F)c1 [Compound 112]
- Johnsongrass plant response rating (johnsongrass; Postemergence, scale 0 to 100): 60
- Plant response rating, Johnsongrass (johnsongrass; [1]): 50
- Plant response rating, Johnsongrass (johnsongrass; [2]): 20
- Plant response rating, Johnsongrass (johnsongrass; [3]): 20
- Corn plant response rating (corn; Postemergence, scale 0 to 100): 30
- Plant response rating, Corn (corn; [2]): 20
- Plant response rating, Corn (corn; [3]): 10
- Barnyardgrass plant response rating (barnyardgrass; [4]): 35
- Plant response rating, Barnyardgrass (barnyardgrass; [5]): 45
- Barnyardgrass plant response rating (barnyardgrass; [6]): 25
- Barnyardgrass plant response rating (barnyardgrass; Preemergence, 2000 g ai/ha, visual rating, 0 to 100 scale (0 no effect, 100 complete control)): 50
- Surinam Grass plant response rating (Surinam grass; Postemergence, scale 0 to 100): 60
- Plant response rating, Surinam Grass (Surinam grass; [1]): 40
- Plant response rating, Surinam Grass (Surinam grass; [2]): 40
- Plant response rating, Surinam Grass (Surinam grass; [3]): 20
- Chickweed plant response rating (chickweed; Postemergence, scale 0 to 100): 100
- Plant response rating, Chickweed (chickweed; [1]): 100
- Plant response rating, Chickweed (chickweed; [2]): 10
- Plant response rating, Chickweed (chickweed; [3]): 0
- Kochia plant response rating (kochia; Postemergence, scale 0 to 100): 80
- Plant response rating, Kochia (kochia; [2]): 20
- Plant response rating, Kochia (kochia; [3]): 0
- Cocklebur plant response rating (cocklebur; Postemergence, scale 0 to 100): 70
- Plant response rating, Cocklebur (cocklebur; [1]): 60
- Plant response rating, Cocklebur (cocklebur; [2]): 30
- Plant response rating, Cocklebur (cocklebur; [3]): 0
- Rice plant response rating (rice; [7]): 0
- Rice plant response rating (rice; [8]): 0
- Rice plant response rating (rice; [9]): 10
- Plant response rating, Rice (rice; [10]): 30
- Lambsquarters plant response rating (lambsquarters; Postemergence, scale 0 to 100): 100
- Plant response rating, Lambsquarters (lambsquarters; [1]): 100
- Plant response rating, Lambsquarters (lambsquarters; [2]): 20
- Plant response rating, Lambsquarters (lambsquarters; [3]): 20
- Cupgrass, Woolly plant response rating (woolly cupgrass; Postemergence, scale 0 to 100): 70
- Plant response rating, Cupgrass, Woolly (woolly cupgrass; [1]): 60
- Plant response rating, Cupgrass, Woolly (woolly cupgrass; [2]): 30
- Plant response rating, Cupgrass, Woolly (woolly cupgrass; [3]): 0

SMILES: CCn1nc(C(C)(C)C)cc1C(=O)Nc1cccc(C(=O)OC)c1 [Compound 81]
- Plant response rating, Johnsongrass (johnsongrass; [1]): 5
- Plant response rating, Johnsongrass (johnsongrass; [2]): 0
- Plant response rating, Johnsongrass (johnsongrass; [3]): 0
- Plant response rating, Corn (corn; [1]): 40
- Plant response rating, Corn (corn; [2]): 40
- Plant response rating, Corn (corn; [3]): 40
- Plant response rating, Surinam Grass (Surinam grass; [1]): 80
- Plant response rating, Surinam Grass (Surinam grass; [2]): 50
- Plant response rating, Surinam Grass (Surinam grass; [3]): 50
- Plant response rating, Chickweed (chickweed; [1]): 100
- Plant response rating, Chickweed (chickweed; [2]): 95
- Plant response rating, Chickweed (chickweed; [11]): 90
- Plant response rating, Chickweed (chickweed; [3]): 95
- Plant response rating, Kochia (kochia; [1]): 70
- Plant response rating, Kochia (kochia; [2]): 20
- Plant response rating, Kochia (kochia; [3]): 0
- Plant response rating, Cocklebur (cocklebur; [1]): 60
- Plant response rating, Cocklebur (cocklebur; [2]): 55
- Plant response rating, Cocklebur (cocklebur; [11]): 50
- Plant response rating, Cocklebur (cocklebur; [3]): 55
- Rice plant response rating (rice; [7]): 20
- Rice plant response rating (rice; [8]): 20
- Rice plant response rating (rice; [9]): 30
- Plant response rating, Rice (rice; [10]): 40
- Plant response rating, Lambsquarters (lambsquarters; [1]): 5
- Plant response rating, Lambsquarters (lambsquarters; [2]): 5
- Plant response rating, Lambsquarters (lambsquarters; [3]): 5
- Plant response rating, Cupgrass, Woolly (woolly cupgrass; [1]): 5
- Plant response rating, Cupgrass, Woolly (woolly cupgrass; [2]): 5
- Plant response rating, Cupgrass, Woolly (woolly cupgrass; [3]): 5

SMILES: C=CCOC(=O)c1cccc(NC(=O)c2cc(C(C)(C)C)nn2CC)c1 [Compound 85]
- Johnsongrass plant response rating (johnsongrass; Postemergence, scale 0 to 100): 80
- Plant response rating, Johnsongrass (johnsongrass; [1]): 20
- Plant response rating, Johnsongrass (johnsongrass; [2]): 10
- Plant response rating, Johnsongrass (johnsongrass; [3]): 10
- Corn plant response rating (corn; Postemergence, scale 0 to 100): 45
- Plant response rating, Corn (corn; [1]): 35
- Plant response rating, Corn (corn; [2]): 30
- Plant response rating, Corn (corn; [3]): 30
- Barnyardgrass plant response rating (barnyardgrass; [4]): 20
- Plant response rating, Barnyardgrass (barnyardgrass; [5]): 25
- Barnyardgrass plant response rating (barnyardgrass; [6]): 0
- Barnyardgrass plant response rating (barnyardgrass; Preemergence, 2000 g ai/ha, 0 to 100 scale, 0 no effect, 100 complete control): 0
- Surinam Grass plant response rating (Surinam grass; Postemergence, scale 0 to 100): 80
- Plant response rating, Surinam Grass (Surinam grass; [1]): 80
- Plant response rating, Surinam Grass (Surinam grass; [2]): 30
- Plant response rating, Surinam Grass (Surinam grass; [3]): 25
- Chickweed plant response rating (chickweed; Postemergence, scale 0 to 100): 100
- Plant response rating, Chickweed (chickweed; [1]): 100
- Plant response rating, Chickweed (chickweed; [2]): 100
- Plant response rating, Chickweed (chickweed; [3]): 100
- Kochia plant response rating (kochia; Postemergence, scale 0 to 100): 90
- Plant response rating, Kochia (kochia; [1]): 90
- Plant response rating, Kochia (kochia; [2]): 60
- Plant response rating, Kochia (kochia; [3]): 20
- Cocklebur plant response rating (cocklebur; Postemergence, scale 0 to 100): 100
- Plant response rating, Cocklebur (cocklebur; [1]): 100
- Plant response rating, Cocklebur (cocklebur; [2]): 80
- Plant response rating, Cocklebur (cocklebur; [3]): 20
- Lambsquarters plant response rating (lambsquarters; Postemergence, scale 0 to 100): 100
- Plant response rating, Lambsquarters (lambsquarters; [1]): 50
- Plant response rating, Lambsquarters (lambsquarters; [2]): 30
- Plant response rating, Lambsquarters (lambsquarters; [3]): 10
- Cupgrass, Woolly plant response rating (woolly cupgrass; Postemergence, scale 0 to 100): 85
- Plant response rating, Cupgrass, Woolly (woolly cupgrass; [1]): 80
- Plant response rating, Cupgrass, Woolly (woolly cupgrass; [2]): 50
- Plant response rating, Cupgrass, Woolly (woolly cupgrass; [3]): 40
